# Laboratory results as given in patent US11058703B2, “Application of triacetyl-3-hydroxyphenyladenosine in preparation of pharmaceutical drug for preventing or treating non-alcoholic fatty liver disease” (priority 2015, dated 2021).
# Legend:
# [1] = tested on: golden hamster with non-alcoholic fatty liver disease induced by high-fat diet; experiment: Body weight and liver coefficient of golden hamster with non-alcoholic fatty liver disease induced by high-fat diet; type: in vivo, Syrian golden hamster; conditions: n = 10, mean ± standard error
# Description: The animals were fasted overnight before the end of the experiment, anesthetized by intraperitoneal injection of 3% pentobarbital sodium, the abdominal cavity was exposed, and the liver was rapidly separated after blood was taken from the aorta abdominalis. One liver lobe was preserved, and two pieces of 1×1 cm^3 pieces were cut at a fixed site, one piece was embedded in OCT, quickly frozen in liquid nitrogen, and stored in liquid nitrogen or at −80° C.; and the other piece was placed in a 4% paraformaldehyde stationary liquid and stored at 4° C.
# [2] = tested on: golden hamster with non-alcoholic fatty liver disease induced by high-fat diet; experiment: Serum lipid indexes of golden hamster with non-alcoholic fatty liver disease induced by high-fat diet; type: in vivo, Syrian golden hamster; conditions: n = 10; for LDL-C: calculated LDL=TC-HDL-0.2TG
# Description: (§1) After 5 days of adaptive feeding, animals were randomly divided into a normal control group (n=15), a high-fat diet group (n=15), an IMMH007 low-dose group (25 mg/kg, n=15), an IMMH007 medium-dose group (50 mg/kg, n=15), and an IMMH007 high-dose group (100 mg/kg, n=15), and given intragastric administration twice daily.
# (§2) The animals were fasted for 12 hours, and 0.5 ml blood was collected from the angular vein and allowed to stand for 60 min, and centrifuged at 6000 g for 10 min, and the supernatant was aspirated as much as possible, and then centrifuged at 6000 g for 10 min. The absorbance values were measured according to the instructions of the total cholesterol (TC), triglycerides (TG), aspartate aminotransferase (AST), and alanine aminotransferase (ALT) kits, and the concentration of each index was calculated. 50 ul serum was mixed with 50 ul PEG6000 in a ratio of 1:1, vortexed uniformly, allowed to stand for 10 min, and centrifuged at 1900 g for 20 min at room temperature, and the supernatant was carefully pipetted, stored at 4° C., and measured for high density lipoprotein cholesterol (HDL-C) according to the instructions of the total cholesterol (TC) kit. The plasma low density lipoprotein (LDL) level was calculated by subtracting HDL-C and 0.2-fold TG levels from plasma total cholesterol TC, ie, LDL=TC-HLD-0.2TG.
# [3] = tested on: golden hamster with non-alcoholic fatty liver disease induced by high-fat diet; experiment: Lipid content in liver tissue of golden hamster with non-alcoholic fatty liver disease induced by high-fat diet; type: in vivo, Syrian golden hamster; conditions: n = 10
# Description: 100 mg liver tissue was accurately weighed, and added with a triglyceride detection lysate, the tissue was homogenized by a homogenizer in an ice bath to no significant tissue mass, placed on ice for 5 min, transferred to a 1.5 ml centrifuge tube, and centrifuged at 14000 g for 10 min at 4° C., the supernatant was transferred and a portion of the supernatant was taken for protein quantification, and detected for its lipid content according to the instructions of the TC and TG detection kits.
# [4] = tested on: golden hamster with non-alcoholic fatty liver disease induced by high-fat diet; conditions: in vivo
# Description: as §1, §2
# [5] = tested on: golden hamster with non-alcoholic fatty liver disease induced by high-fat diet; experiment: Liver function (serum ALT, AST) of golden hamster with non-alcoholic fatty liver disease induced by high-fat diet; conditions: n = 10; for GPT: serum ALT; for GOT: serum AST
# Description: as §1, §2
compound,measurement,setting,value
"CC(=O)OCC1OC(n2cnc3c(Nc4cccc(O)c4)ncnc32)C(OC(C)=O)C1OC(C)=O (stereo not shown) [IMM-H007, triacetyl-3-hydroxyphenyladenosine]",Body Weight,[1]; IMM-H007 50 mg/kg,170 ± 11
same,Liver Organ Coefficient,[1]; IMM-H007 50 mg/kg,0.0313 ± 0.002
same,Liver Organ Coefficient,[1]; IMM-H007 100 mg/kg,0.0291 ± 0.003
same,Body Weight,"[1]; IMM-H007 100 mg/kg, in g (unit assumed)",177 ± 9
same,Body Weight,[1]; IMM-H007 200 mg/kg,166 ± 12
same,Liver Organ Coefficient,[1]; IMM-H007 200 mg/kg,0.0298 ± 0.002
same,FFA,[2]; IMM-H007 50 mg/kg,2324.6 ± 783.4 μEq/L
same,HDL-C,[2]; IMM-H007 50 mg/kg,2.8 ± 0.4 mmol/L
same,TC,[2]; IMM-H007 50 mg/kg,7.9 ± 1.0 mmol/L
same,TG,[2]; IMM-H007 50 mg/kg,4.7 ± 1.9 mmol/L
same,FFA,[2]; IMM-H007 100 mg/kg,1889.5 ± 386.5 μEq/L
same,HDL-C,[2]; IMM-H007 100 mg/kg,2.8 ± 0.2 mmol/L
same,TC,[2]; IMM-H007 100 mg/kg,7.0 ± 1.0 mmol/L
same,TG,[2]; IMM-H007 100 mg/kg,4.3 ± 1.4 mmol/L
same,FFA,[2]; IMM-H007 200 mg/kg,1497.6 ± 326.2 μEq/L
same,HDL-C,[2]; IMM-H007 200 mg/kg,2.6 ± 0.5 mmol/L
same,TC,[2]; IMM-H007 200 mg/kg,6.7 ± 1.0 mmol/L
same,TG,[2]; IMM-H007 200 mg/kg,2.7 ± 0.8 mmol/L
same,LDL-C,[2]; IMM-H007 50 mg/kg,4.1 ± 1.2 mmol/L
same,LDL-C,[2]; IMM-H007 100 mg/kg,4.0 ± 0.7 mmol/L
same,LDL-C,[2]; IMM-H007 200 mg/kg,3.3 ± 0.5 mmol/L
same,TC,[3]; IMM-H007 50 mg/kg,2.8 ± 0.8 µmol/g protein
same,TG,[3]; IMM-H007 50 mg/kg,3.6 ± 0.1 µmol/g protein
same,TC,[3]; IMM-H007 100 mg/kg,2.4 ± 0.4 µmol/g protein
same,TG,[3]; IMM-H007 100 mg/kg,3.3 ± 0.1 µmol/g protein
same,TC,[3]; IMM-H007 200 mg/kg,1.8 ± 0.8 µmol/g protein
same,TG,[3]; IMM-H007 200 mg/kg,2.8 ± 0.1 µmol/g protein
same,Effect on the liver as concluded from serum ALT and AST,[4],good hepatic protective effect
same,GPT,[5]; IMM-H007 50 mg/kg,21.1 ± 5.2 U/L
same,GPT,[5]; IMM-H007 100 mg/kg,20.9 ± 8.0 U/L
same,GPT,[5]; IMM-H007 200 mg/kg,12.4 ± 3.1 U/L
same,GOT,[5]; IMM-H007 50 mg/kg,9.4 ± 1.7 U/L
same,GOT,[5]; IMM-H007 100 mg/kg,8.4 ± 2.3 U/L
same,GOT,[5]; IMM-H007 200 mg/kg,7.2 ± 2.1 U/L
